Reference: US20230295106A1 (priority 2019, published 2023)
Like-named read-outs stand apart in the source and are kept apart here.

How the values were obtained:
[1] = test system: rat cortical neurons; experiment: Neurite outgrowth in primary neuronal cultures assay; type: cell-based; design: key: A: Statistically significant mean increase as a percent of DMSO control at 10 μM or less; B: No statistically significant mean increase as a percent of DMSO control at 10 μM or less; details: 72 h, vs DMSO control, at 10 μM or less
Description: Neurite Outgrowth in Primary Neuronal Cultures Assay. Changes in the pattern of neurite outgrowth have been implicated in psychiatric and neurodegenerative disorders as well as traumatic injuries. The discovery of new compounds that can positively affect neuritogenesis are important for developing new therapeutics for neurological diseases. Measurement of neurite outgrowth of rat cortical neurons using an automated image-based assay was used to determine the neuroplastic effects of the compounds of the present invention. The neurite outgrowth assay was performed at Neurofit SAS (France) as described below.
Pregnant Wistar rats (Janvier; France) were used for the study. They were delivered 6 days before their use. Upon arrival at Neurofit animal facility, they were housed one per cage and maintained in a room with controlled temperature (21-22° C.) and a reversed light-dark cycle (12 h/12 h; lights on: 17:30-05:30; lights off: 05:30-17:30) with food and water available ad libitum.
Female Wistar rats of 17 days gestation were killed by cervical dislocation and the fetuses were removed from the uterus. Their brains were placed in ice-cold medium of Leibovitz (L15, Gibco, Fisher bioblock, France). Cortices were dissected and meninges were carefully removed. The cortical neurons were dissociated by trypsinization for 30 min at 37° C. (trypsin-EDTA, Gibco) in presence of 0.1 mg/ml DNAse I (Roche, France). The reaction was stopped by addition of Dulbecco's Modified Eagle Medium (DMEM; Gibco) with 10% of fetal bovine serum (FBS; Gibco). The suspension was triturated with a 10-ml pipette and using a needle syringe 21 G and centrifuged at 350×g for 10 min at room temperature. The pellet of dissociated cells was resuspended in a medium consisting of Neurobasal (Gibco) supplemented with 2% B27 supplement (Gibco), 0.5 mM L-Glutamine (Gibco), an antibiotic-antimicotic mixture. Viable cells were counted in a Neubauer cytometer using the trypan blue exclusion test (Sigma). Cells were seeded at a density of 10000 cells per well in 96-well plate (Costar) precoated with poly-L-lysine. Test compound at different concentrations were added to the cultures. Donepezil (positive control) was tested at 250 nM.
After 72 h (3 days) of plating, cultures were fixed with paraformaldehyde in PBS (4%, Sigma) for 30 min at 4° C. Then, cells were successively permeabilized with 0.1% Triton X100 for 30 min, saturated with PBS containing 3% of BSA and were incubated 1 h with anti-beta III tubulin antibody (Sigma) at 1/10000 in PBS containing 0.5% of BSA. Cells were washed three times with PBS containing 0.5% of BSA, and they were incubated 1 h with goat anti-mouse antibody coupled with AF488 (Invitrogen A11001) diluted at 1/1000 in PBS containing 0.5% of BSA. Finally, nuclei were staining with DAPI 1 mg/ml at 1/1000 in PBS containing 0.5% of BSA. After rinsing with PBS, the plate was filmed and neurite networks were examined and analyzed using High-Content Screening (CellInsight, Thermo Scientific). The average number of neurites per neuron and the average total length of neurites per neuron were the main parameters analyzed. Analysis of data was performed using analysis of variance (ANOVA). The Fisher's Protected Least Significant Difference test was used for multiple comparisons. A p value <0.05 was considered significant. The software used is StatView 5.0 from SAS Institut.

[2] = target: T1, 5-HT2A (Homo sapiens, UniProt P28223); experiment: Serotonin 5-HT2A in vitro cellular IPOne agonism assay (HTRF); type: cell-based; design: host or cells: CHO-K1
[3] = target: T1, 5-HT2A; experiment: Serotonin 5-HT2A in vitro radioligand binding competition assay ([3H]-DOI); design: Epics Therapeutics S.A. (Belgium) FAST-0505B; host or cells: membrane extracts
[4] = 5-HT2A IPOne Agonism Activity, CHO-K1 cells, 60 min at 37° C.
[5] = 5-HT2A Radioligand Binding Activity, competition with [3H]-DOI, membrane extracts

T1 sequence (P28223 whole entry): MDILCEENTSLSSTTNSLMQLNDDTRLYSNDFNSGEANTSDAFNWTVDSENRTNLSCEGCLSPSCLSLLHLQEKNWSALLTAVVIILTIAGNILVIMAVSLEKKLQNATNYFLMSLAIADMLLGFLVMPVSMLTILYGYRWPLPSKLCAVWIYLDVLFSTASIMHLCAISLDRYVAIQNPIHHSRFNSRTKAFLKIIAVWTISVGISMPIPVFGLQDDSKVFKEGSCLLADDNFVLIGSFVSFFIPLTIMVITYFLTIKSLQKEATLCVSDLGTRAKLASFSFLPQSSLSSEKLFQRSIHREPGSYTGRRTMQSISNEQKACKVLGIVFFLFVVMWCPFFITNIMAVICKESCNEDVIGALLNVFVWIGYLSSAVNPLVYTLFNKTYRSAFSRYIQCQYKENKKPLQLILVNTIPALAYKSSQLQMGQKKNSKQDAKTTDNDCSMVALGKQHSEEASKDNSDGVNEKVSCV

| Compound | Increase in Neurite Length [1] | Increase in Neurite Number [1] | EC50 [2, 4] [nM] | IC50 [3, 5] [nM] | EC50 [2] [nM] | IC50 [3] [nM] | EC50 ([2]; read-out: 5-HT2A IPOne Agonism Activity, CHO-K1 cells, 60 min at 37° C.) [nM] | IC50 ([3]; read-out: 5-HT2A Radioligand Binding Activity, competition with [3H]-DOI, membrane extracts) [nM] |
| --- | --- | --- | --- | --- | --- | --- | --- | --- |
| CCN(CC)C(=O)[C@@H]1C=C(c2cc(OC)cc(OC)c2)CN(C)C1 (single isomer, unassigned) [Compound 5, 5-(3,5-dimethoxyphenyl)-N,N-diethyl-1-methyl-1,2,3,6-tetrahydropyridine-3-carboxamide] | A | A | 10 to 100 | 101 to 1000 |  |  |  |  |
| CCN(CC)C(=O)[C@@H]1C=C(c2cc(OC)cc(OC)c2)CN(C)C1 (single isomer, unassigned) [Compound 6, 5-(3,5-dimethoxyphenyl)-N,N-diethyl-1-methyl-1,2,3,6-tetrahydropyridine-3-carboxamide] | A | A | 101 to 1000 | 1000 to 10000 |  |  |  |  |
| CCN(CC)C(=O)[C@@H]1C=C(c2ccccc2OC)CN(C)C1 (single isomer, unassigned) [Compound 7, N,N-diethyl-5-(2-methoxyphenyl)-1-methyl-1,2,3,6-tetrahydropyridine-3-carboxamide] | B | B | 10 to 100 | 10 to 100 |  |  |  |  |
| CCN(CC)C(=O)[C@@H]1C=C(c2ccccc2OC)CN(C)C1 (single isomer, unassigned) [Compound 8, N,N-diethyl-5-(2-methoxyphenyl)-1-methyl-1,2,3,6-tetrahydropyridine-3-carboxamide] | A | A | 101 to 1000 | 101 to 1000 |  |  |  |  |
| CCN(CC)C(=O)[C@@H]1C=C(c2cccc(OC)c2)CN(C)C1 (single isomer, unassigned) [Compound 9, N,N-diethyl-5-(3-methoxyphenyl)-1-methyl-1,2,3,6-tetrahydropyridine-3-carboxamide] | A | A | 10 to 100 | 10 to 100 |  |  |  |  |
| CCN(CC)C(=O)[C@@H]1C=C(c2cccc(OC)c2)CN(C)C1 (single isomer, unassigned) [Compound 10, N,N-diethyl-5-(3-methoxyphenyl)-1-methyl-1,2,3,6-tetrahydropyridine-3-carboxamide] | A | A | 101 to 1000 | 101 to 1000 |  |  |  |  |
| CCN(CC)C(=O)[C@@H]1C=C(c2cccc3[nH]ccc23)CN(C)C1 (single isomer, unassigned) [Compound 11, N,N-diethyl-5-(1H-indol-4-yl)-1-methyl-1,2,3,6-tetrahydropyridine-3-carboxamide] | A | A |  |  |  |  |  |  |
| CCN(CC)C(=O)[C@@H]1C=C(c2cccc3[nH]ccc23)CN(C)C1 (single isomer, unassigned) [Compound 12, N,N-diethyl-5-(1H-indol-4-yl)-1-methyl-1,2,3,6-tetrahydropyridine-3-carboxamide] | A | A |  |  |  |  |  |  |
| CN(C)C1Cc2cccc3ccn(c23)C1 (single isomer, unassigned) [Compound 14, N,N-dimethyl-5,6-dihydro-4H-pyrrolo[3,2,1-ij]quinolin-5-amine] | A | A |  |  | > 10000 | 101 to 1000 |  |  |
| CN(C)C1Cc2cccc3ccn(c23)C1 (single isomer, unassigned) [Compound 15, N,N-dimethyl-5,6-dihydro-4H-pyrrolo[3,2,1-ij]quinolin-5-amine] | B | B |  |  |  |  | > 10000 | 101 to 1000 |
| NC1Cc2cccc3ccn(c23)C1 (stereo not shown) [Compound 13, 5,6-dihydro-4H-pyrrolo[3,2,1-ij]quinolin-5-amine] | A | A |  |  | > 10000 | 1000 to 10000 |  |  |
| CCN(CC)C1Cc2cccc3ccn(c23)C1 (stereo not shown) [Compound 16, N,N-diethyl-5,6-dihydro-4H-pyrrolo[3,2,1-]quinolin-5-amine] | A | A |  |  | 101 to 1000 | 101 to 1000 |  |  |
| NC1Cc2cc(F)cc3ccn(c23)C1 (stereo not shown) [Compound 17, 8-fluoro-5,6-dihydro-4H-pyrrolo[3,2,1-ij]quinolin-5-amine] |  |  |  |  | > 10000 | 1000 to 10000 |  |  |
| NC1Cc2c(F)ccc3ccn(c23)C1 (stereo not shown) [Compound 19, 7-fluoro-5,6-dihydro-4H-pyrrolo[3,2,1-ij]quinolin-5-amine] |  |  |  |  | > 10000 | > 10000 |  |  |
| NC1Cc2cc(Cl)cc3ccn(c23)C1 (stereo not shown) [Compound 21, 8-chloro-5,6-dihydro-4H-pyrrolo[3,2,1-ij]quinolin-5-amine] |  |  |  |  | 1000 to 10000 | 1000 to 10000 |  |  |
| NC1Cc2c(Cl)ccc3ccn(c23)C1 (stereo not shown) [Compound 23, 7-chloro-5,6-dihydro-4H-pyrrolo[3,2,1-ij]quinolin-5-amine] |  |  |  |  | 1000 to 10000 | 1000 to 10000 |  |  |
| COc1cc2c3c(ccn3CC(N)C2)c1 (stereo not shown) [Compound 25, 8-methoxy-5,6-dihydro-4H-pyrrolo[3,2,1-ij]quinolin-5-amine] |  |  |  |  | > 10000 | > 10000 |  |  |
| NC1Cc2cccc3[nH]cc(c23)C1 (stereo not shown) [Compound 27, 1,3,4,5-tetrahydrobenzo[cd]indol-4-amine] | A | A |  |  | 1000 to 10000 | 1000 to 10000 |  |  |
